Data on eleven compounds can be found in ChEMBL document CHEMBL5576070, “The recent discovery of a promising pharmacological scaffold derived from carvacrol: A review” (Bioorg Med Chem Lett, 2024).

Test [1] deals with HCT-15. As to the kind of experiment: Growth inhibition of human HCT-15 cells incubated for 48 hrs by SRB assay. It is filed as functional. (Sulforhodamine B stains cellular protein and so reports cell mass.)
In test [2] the test system is MIA PaCa-2. As to the kind of experiment: Growth inhibition of human MIA PaCa-2 cells incubated for 48 hrs by SRB assay. Format: functional.
Test [3] has as its system Pseudomonas aeruginosa. The test is described as follows: Antibacterial activity against Pseudomonas aeruginosa ATCC 27853 assessed as bacterial growth inhibition measured after 18 hrs by CLSI protocol based two-fold serial microdilution method. Format: functional. (In general: Broth dilution looks for growth in wells or tubes with falling amounts of substance.)
Test [4] relates to Pseudomonas aeruginosa. The test is described as follows: Bactericidal activity against Pseudomonas aeruginosa ATCC 27853 assessed as reduction in bacterial viability. It is filed as functional.
The subject of test [5] is Bacillus subtilis. The test is described as follows: Antibacterial activity against Bacillus subtilis assessed as zone of inhibition. Format: functional.
Test [6] concerns Staphylococcus aureus. As to the kind of experiment: Antimicrobial activity against Staphylococcus aureus […] assessed as reduction in bacterial growth incubated for 24 hrs by Mueller-Hinton agar based analysis. Format: functional.
In test [7] the test system is Escherichia coli. As to the kind of experiment: Antibacterial activity against Escherichia coli assessed as reduction in bacterial growth by broth microdilution method. It is filed as functional.
In test [8] the test system is Escherichia coli. The test is described as follows: Antibacterial activity against Escherichia coli assessed as reduction in bacterial growth incubated for 24 hrs by Mueller-Hinton agar based analysis. Format: functional.
The nature of test [9]: Antioxidant activity assessed as DPPH radical scavenging activity incubated for 20 mins by spectrophotometric method. Format: functional.
In test [10] the test system is Proteus vulgaris. The test is described as follows: Antimicrobial activity against Proteus vulgaris NCIM 2813 assessed as zone of inhibition incubated for 24 hrs by agar diffusion method. It is filed as functional. A general note: In agar diffusion tests the substance spreads into inoculated agar from a disc or well.
Test [11] deals with Salmonella typhimurium. As to the kind of experiment: Antibacterial activity against Salmonella typhimurium DT104 assessed as reduction in bacterial growth inhibition. Format: functional, Salmonella enterica subsp. enterica serovar Typhimurium.
The subject of test [12] is Pseudomonas aeruginosa. As to the kind of experiment: Antibacterial activity against Pseudomonas aeruginosa ATCC 15442 assessed as reduction in bacterial growth incubated for 24 hrs by Mueller-Hinton agar based analysis. Format: functional.
Test [13] relates to Candida albicans. The test is described as follows: Fungicidal activity against Candida albicans assessed as reduction in fungal growth measured after 48 hrs by CLSI protocol based microdilution method. It is filed as functional.
For test [14], the system named is Clostridium perfringens. The test is described as follows: Antibacterial activity against Clostridium perfringens assessed as reduction in bacterial growth inhibition. It is filed as functional.
The test system of test [15] is Staphylococcus epidermidis. As to the kind of experiment: Antimicrobial activity against Staphylococcus epidermidis ATCC 12228 assessed as reduction in bacterial growth incubated for 24 hrs by Mueller-Hinton agar based analysis. Format: functional.
Test [16] deals with Candida albicans. As to the kind of experiment: Antifungal activity against Candida albicans assessed as reduction in fungal growth incubated for 24 hrs by broth microdilution method. It is filed as functional.
In test [17] the test system is Salmonella enteritidis. The test is described as follows: Antibacterial activity against Salmonella enterica subsp. enterica serovar Enteritidis assessed as reduction in bacterial growth inhibition. It is filed as functional.
For test [18], the system named is Escherichia coli. As to the kind of experiment: Antibacterial activity against Escherichia coli assessed as reduction in bacterial growth inhibition. Format: functional.
Test [19] deals with Mus musculus. As to the kind of experiment: Antinociceptive activity in Swiss mouse assessed as reduction in pain like behavior at 0.003 mg/kg, ip and measured after 1.5 hrs by cold plate test. It is filed as functional. Details: scale not given: the % may be the effect or the level left.
Test [20] relates to Escherichia coli. The test is described as follows: Antibacterial activity against Escherichia coli ATCC 25922 assessed as zone of inhibition incubated for 24 hrs by agar diffusion method. It is filed as functional.
Test [21] in a line: Antibacterial activity against Salmonella enterica subsp. enterica serovar Pullorum assessed as inhibition of bacterial growth incubated for 18 hrs by CLSI protocol based microbroth dilution method. It is filed as functional.
Test [22] concerns Escherichia coli. As to the kind of experiment: Antibacterial activity against Escherichia coli ATCC 25922 assessed as reduction in bacterial growth incubated for 18 to 20 hrs by broth microdilution assay. Particulars: time 18-20 hrs. Format: functional.
Test [23] concerns Pseudomonas fluorescens. As to the kind of experiment: Antibacterial activity against Pseudomonas fluorescens assessed as reduction in bacterial growth. Format: functional.
Test [24] concerns Pseudomonas fluorescens. As to the kind of experiment: Antibacterial activity against Pseudomonas fluorescens assessed as zone of inhibition. It is filed as functional.
For test [25], the system named is Pseudomonas aeruginosa. The test is described as follows: Antibacterial activity against Pseudomonas aeruginosa ATCC 15442 assessed as bacterial growth inhibition measured after 18 hrs by CLSI protocol based two-fold serial microdilution method. It is filed as functional.
Test [26] concerns Staphylococcus aureus. The test is described as follows: Antibacterial activity against Staphylococcus aureus ATCC 29213 assessed as bacterial growth inhibition measured after 18 hrs by CLSI protocol based two-fold serial microdilution method. Format: functional.
The test system of test [27] is Bacillus subtilis. The test is described as follows: Antibacterial activity against Bacillus subtilis assessed as reduction in bacterial growth incubated for 20 hrs by broth microdilution assay. Format: functional.
The test system of test [28] is Staphylococcus epidermidis. As to the kind of experiment: Antibacterial activity against Staphylococcus epidermidis ATCC 12228 assessed as reduction in bacterial growth incubated for 18 hrs by two fold serial microdilution method. It is filed as functional.
Test [29] relates to Staphylococcus aureus. As to the kind of experiment: Synergistic antibacterial activity against Staphylococcus aureus ATCC 29213 assessed as fractional inhibitory concentration incubated for 24 hrs in the presence of ampicillin by checkerboard assay. It is filed as functional.
For test [30], the system named is Streptococcus pneumoniae. The test is described as follows: Antibacterial activity against Streptococcus pneumoniae assessed as reduction in bacterial cell growth inhibition by broth microdilution method. Format: functional, organism-based.
For test [31], the system named is Enterococcus faecalis. As to the kind of experiment: Antibacterial activity against Enterococcus faecalis ATCC 10541 assessed as reduction in bacterial growth incubated for 24 hrs by broth microdilution method. The settings on record: ATCC 10541, 24 h. Format: functional, organism-based.
The test system of test [32] is Clostridium perfringens. As to the kind of experiment: Antibacterial activity against Clostridium perfringens assessed as inhibition of bacterial growth incubated for 18 hrs by CLSI protocol based microbroth dilution method. It is filed as functional.

The GI50 is the concentration giving 50% growth inhibition. For orientation: MBC means the lowest tested concentration that kills the bacteria rather than only halting them. The IC50 is the concentration at which inhibition is half-maximal. As usually defined, the MFC is the smallest concentration meeting the test's criterion for killing the fungus.

Structures are written as SMILES. ≈ marks a conversion by molar mass, not a printed value. Some results are limits rather than exact numbers.

On to `COc1cccc2c1C(=O)c1c(O)c3c(c(O)c1C2=O)C[C@@](O)(C(=O)CO)C[C@@H]3O[C@H]1C[C@H](N)[C@H](O)[C@H](C)O1.Cl` [DOXORUBICIN HYDROCHLORIDE], for which the GI50 in test [1] and in test [2] was 80 µg/mL throughout.
With `Cc1cc(Cl)c(C(C)C)cc1O`, the MIC in test [3] turned out to be 3.44 µg/mL (≈ 18.6 µM). Also, the minimal bactericidal concentration (MBC) in [4] worked out at 6.87 µg/mL (≈ 37.2 µM).
Turning to `Cc1ccc(C(C)C)cc1O` [CARVACROL], the “inhibition zone (IZ)” value was found to be 13 mm in test [5] and 7 mm in test [10]. Further, the MIC in [6] is 0.6 µg/mL (≈ 3.99 µM); in test [7], 450 µg/mL (≈ 3000 µM); in test [8] it was 0.6 µg/mL (≈ 3.99 µM); in [11], 0.37 %v/v; in test [12], 5 µg/mL (≈ 33.3 µM); in test [14] it was less than 0.09 %v/v. In addition, the MIC in test [15] was 0.3 µg/mL (≈ 2 µM); in [16] it was 256 µg/mL (≈ 1700 µM); in test [17], less than 0.09 %v/v; in test [18] it was less than 0.09 %v/v. In addition, in [9], the IC50 was 267 µg/mL (≈ 1780 µM). Moreover, the minimum fungicidal concentration (MFC) in [13] was found to be 512 µg/mL (≈ 3410 µM).
For `Cc1c(O)cc(C(C)C)cc1S(=O)(=O)N1CCOCC1`, in [19], the Activity amounted to 62%.
In the case of `Cc1ccc(C(C)C)cc1OCC(=O)NNS(=O)(=O)c1ccc(Cl)cc1`, the “inhibition zone (IZ)” value in [20] turned out to be 10 mm.
For the compound `Cc1ccc(C(C)C)cc1OC1CC[C@H](O)[C@@H](CO)O1` (some centres undefined), the MIC in [21] is 0.5 µg/mL (≈ 1.78 µM).
In the case of `Cc1ccc(C(C)C)cc1OCC(=O)NNS(=O)(=O)c1cccc(C(F)(F)F)c1`, the “inhibition zone (IZ)” value in test [20] was 10 mm.
Regarding `COc1cc(C(C)C)ccc1C`, the MIC in [22] amounted to 250 µg/mL (≈ 1520 µM); in test [23] it was 250 µg/mL (≈ 1520 µM); in test [25], 0.49 µM (≈ 0.0805 µg/mL); in [26], 250 µg/mL (≈ 1520 µM); in test [27], 250 µg/mL (≈ 1520 µM); in [28] it was 0.06 µM (≈ 0.00985 µg/mL). Besides, the “inhibition zone (IZ)” value in test [24] is on record as 15 mm.
Turning to `Cc1cc(S(=O)(=O)Nc2ccc(F)cc2)c(C(C)C)cc1O`, the FIC in test [29] is 0.5.
Regarding `Cc1ccc(C(C)C)cc1OCc1cn(-c2ccc(C(=O)O)cc2)nn1`, the 50% inhibitory concentration (IC50) in test [30] and in [31] was 15 µg/mL (≈ 42.7 µM) each time.
`C=CCOc1cc(C(C)C)ccc1C`: the MIC in test [3] and in [32] was 110 µg/mL (≈ 578 µM) each time.
